Laboratory results reported in patent publication US9095594B2, “Pharmaceutical compositions comprising beta-lactam antibiotic, sulbactam and beta-lactamase inhibitor” (Wockhardt Ltd., priority 2011, dated 2015).
Values after ≈ are worked out from the molar mass of the structure shown. Counter-ions that a name gives are not always drawn. Like-named read-outs stand apart in the source and are kept apart here.

What was measured:
Test in all cases: Agar dilution MIC (CLSI)
Type in all cases: cell-based
Conditions in all cases: for MIC: Acinetobacter baumannii
[1] = test system: A. baumanii 13301 (ESBL strain)
Experimental: (§1) In a typical study, overnight grown bacterial cultures were diluted appropriately and inoculated on the agar media containing doubling dilutions of the antibiotic. Observation for growth or no growth was performed after 16-20 hours of incubation at 35±2° C. in ambient air.

[2] = test system: A. baumanii 13304 (ESBL strain)
Experimental: as §1

[3] = test system: A. baumanii 13305 (ESBL strain)
Experimental: as §1

[4] = test system: A. baumanii S-3 (ESBL strain)
Experimental: as §1

[5] = test system: A. baumanii S-4 (ESBL strain)
Experimental: as §1

[6] = test system: A. baumanii S-8 (ESBL strain)
Experimental: as §1

[7] = test system: A. baumanii S-10 (ESBL strain)
Experimental: as §1

[8] = test system: A. baumanii S-15 (ESBL strain)
Experimental: as §1

NC(=O)[C@@H]1CC[C@@H]2CN1C(=O)N2OS(=O)(=O)O [NXL-104, sodium salt of trans-7-oxo-6-(sulphooxy)-1,6-diazabicyclo-[3.2.1]-octane-2-carboxamide]
MIC of NXL-104 in presence of Sulbactam (4 mcg/ml) ([1]; A. baumanii 13301, Sulbactam 4 mcg/ml): 2 µg/mL
MIC ([1]; alone, A. baumanii 13301, read-out: MIC): > 64 µg/mL
MIC of NXL-104 in presence of Sulbactam (4 mcg/ml) ([2]; A. baumanii 13304, Sulbactam 4 mcg/ml): 2 µg/mL
MIC ([2]; alone, A. baumanii 13304, read-out: MIC): > 64 µg/mL
MIC of NXL-104 in presence of Sulbactam (4 mcg/ml) ([3]; A. baumanii 13305, Sulbactam 4 mcg/ml): 2 µg/mL
MIC ([3]; alone, A. baumanii 13305, read-out: MIC): > 64 µg/mL
MIC of NXL-104 in presence of Sulbactam (4 mcg/ml) ([4]; A. baumanii S-3, Sulbactam 4 mcg/ml): 16 µg/mL
MIC ([4]; alone, A. baumanii S-3, read-out: MIC): > 64 µg/mL
MIC of NXL-104 in presence of Sulbactam (4 mcg/ml) ([5]; A. baumanii S-4, Sulbactam 4 mcg/ml): 16 µg/mL
MIC ([5]; alone, A. baumanii S-4, read-out: MIC): > 64 µg/mL
MIC of NXL-104 in presence of Sulbactam (4 mcg/ml) ([6]; A. baumanii S-8, Sulbactam 4 mcg/ml): 16 µg/mL
MIC ([6]; alone, A. baumanii S-8, read-out: MIC): > 64 µg/mL
MIC of NXL-104 in presence of Sulbactam (4 mcg/ml) ([7]; A. baumanii S-10, Sulbactam 4 mcg/ml): 16 µg/mL
MIC ([7]; alone, A. baumanii S-10, read-out: MIC): > 64 µg/mL
MIC of NXL-104 in presence of Sulbactam (4 mcg/ml) ([8]; A. baumanii S-15, Sulbactam 4 mcg/ml): 16 µg/mL
MIC ([8]; alone, A. baumanii S-15, read-out: MIC): > 64 µg/mL

CC1(C)[C@H](C(=O)O)N2C(=O)C[C@H]2S1(=O)=O [Sulbactam, sulbactam]
MIC [1]: > 32 µg/mL
MIC [2]: > 32 µg/mL
MIC [3]: 16 µg/mL (≈ 68.6 µM)
MIC [4]: > 32 µg/mL
MIC [5]: > 32 µg/mL
MIC [6]: > 32 µg/mL
MIC [7]: > 32 µg/mL
MIC [8]: > 32 µg/mL
